ChEMBL document CHEMBL4665693, “Amentotaxins C-V, Structurally Diverse Diterpenoids from the Leaves and Twigs of the Vulnerable Conifer Amentotaxus argotaenia and Their Cytotoxic Effects” (J Nat Prod, 2020)

Tests used:
Type in all cases: functional, cell-based
MDA-MB-231 = test: Cytotoxicity against human MDA-MB-231 cells assessed as reduction in cell viability incubated for 48 hrs by MTT assay; details: MDA-MB-231, 48 h
SK-OV-3 = test: Cytotoxicity against human SK-OV-3 cells assessed as reduction in cell viability incubated for 48 hrs by MTT assay; details: SK-OV-3, 48 h
Huh-7 = test: Cytotoxicity against human Huh-7 cells assessed as reduction in cell viability incubated for 48 hrs by MTT assay; details: Huh-7, 48 h
A549 = test: Cytotoxicity against human A549 cells assessed as reduction in cell viability incubated for 48 hrs by MTT assay; details: A549, 48 h
HeLa = test: Cytotoxicity against human HeLa cells assessed as reduction in cell viability incubated for 48 hrs by MTT assay
HCT-116 = test: Cytotoxicity against human HCT-116 cells assessed as reduction in cell viability incubated for 48 hrs by MTT assay; details: HCT-116, 48 h

| SMILES | IC50 (MDA-MB-231) | IC50 (SK-OV-3) | IC50 (Huh-7) | IC50 (A549) | IC50 (HeLa) | IC50 (HCT-116) |
| --- | --- | --- | --- | --- | --- | --- |
| C=C1[C@H](O)C[C@@H]2[C@@](C)(CO)CCC[C@@]2(C)[C@@H]1C/C=C(\C)C=O | 1.5 µM | > 10 µM | > 10 µM | > 10 µM | > 10 µM | > 10 µM |
| C=C1C(=O)[C@]23CC[C@H]4[C@@](C)(CC[C@@H](O)[C@@]45CO5)[C@@H]2CC[C@H]1C3 | 6.8 µM | 2.9 µM | 4.1 µM | 9.8 µM | 5.1 µM | 1.9 µM |
| C=C1[C@H](O)C[C@@H]2[C@@](C)(CO)CCC[C@@]2(C)[C@@H]1C[C@H]1OC(=O)C=C1C | 1.6 µM | > 10 µM | > 10 µM | > 10 µM | > 10 µM | > 10 µM |
| C=C1C(=O)[C@]23CC[C@@H]4[C@@](C)(CO)CCC[C@@]4(C)[C@@H]2CC[C@H]1C3 | 10 µM | 6.9 µM | 9.7 µM | 8.1 µM | > 10 µM | 2.9 µM |
| CC(C)c1cc2c(cc1O)[C@@]1(C)CC[C@H](O)C(C)(C)[C@@H]1CC2=O | 1.6 µM | > 10 µM | > 10 µM | > 10 µM | > 10 µM | > 10 µM |
| C=C1C[C@@]23C[C@@H]1CC[C@H]2[C@]1(C)CCC[C@@](C)(C(=O)O)[C@H]1[C@@H](O)[C@@H]3O | > 10 µM | > 10 µM | > 10 µM | > 10 µM | > 10 µM | > 10 µM |
| C=C1[C@H](O)C[C@@H]2[C@@](C)(CO)CCC[C@@]2(C)[C@@H]1/C=C/C(C)=O | 3 µM | > 10 µM | > 10 µM | > 10 µM | > 10 µM | > 10 µM |
| CC(=O)O[C@H]1C(=O)[C@@]2(C)[C@H]([C@H](OC(=O)c3ccccc3)[C@]3(O)C[C@H](OC(=O)[C@H](O)[C@@H](NC(=O)c4ccccc4)c4ccccc4)C(C)=C1C3(C)C)[C@]1(OC(C)=O)CO[C@@H]1C[C@@H]2O [PACLITAXEL] |  |  | 0.005 µM |  | 0.004 µM |  |
